Consider two molecules from US9989520B2, “Human hepatoma cell line HLCZ01 and uses thereof” (HUNAN PROVINCIAL TUMOR HOSPITAL, priority 2013, dated 2018).

Assay [1] concerns hepatitis C virus. Briefly: α-interferon treatment of HCV-infected HLCZ01 cells (amount of HCV, quantitative PCR). It is filed as cell-based, hepatitis C virus (in human hepatoma cell line HLCZ01). Particulars: with respect to doses of α-interferon and time (hours), FIG. 10. As for the experimental part:
FIG. 10 is a column diagram for the human hepatoma cell line HLCZ01 according to the above first embodiment of the present invention, illustrating the amount of HCV with respect to the amount of interferon used and time (hours).
1. The human hepatoma cell line HLCZ01 cells and Huh7.5 cells are placed on the 6-well cell culture plate (200,000/well). After 24 hours, the medium is replaced with medium containing 2% FBS, and the cells are infected by HCV. The medium is changed after 24 hours. Huh7.5 cells and human hepatoma cell line HLCZ01 are cultured for 1 day, 2 days, 3 days and 6 days respectively, and TRIZOL is used to extract total RNA from the above mentioned two cell lines at different time points after virus infection. One microgram of the total RNA is reversely transcribed into cDNA, and 1 μL of cDNA are used as templates for processing quantitative PCR.
According to the human hepatoma cell line HLCZ01 of the present invention, the human hepatoma cell line HLCZ01 can also be used for the preparation, screening or evaluating anti-HCV drugs. […] Therefore, the human hepatoma cell line HLCZ01 of the present invention can be used for the preparation, screening or evaluating the anti-HCV drugs.

Assay [2] relates to hepatitis B virus. Briefly: α-interferon treatment of HBV-infected HLCZ01 cells (amount of HBV, quantitative PCR). Particulars: based on amount of α-interferon added and processing time (days), FIG. 9. It is filed as cell-based, hepatitis B virus (in human hepatoma cell line HLCZ01). As for the experimental part:
FIG. 9 is a column diagram for the human hepatoma cell line HLCZ01 according to the above second embodiment of the present invention, illustrating the amount of HBV with respect to the amount of interferon used and time (days).
The human hepatoma cell line HLCZ01 is placed on the 60 mm culture plate. After 24 hours, the medium (DMEM medium) is replaced to the mixture of a supernatant of HepaG2.2.15 cells with a complete medium (1:1 by volume ratio), and then the human hepatoma cell line HLCZ01 is continuously cultured. The cells were passaged every 3 to 5 days. DNA from HBV-infected human hepatoma cell line HLCZ01 was isolated every three days. One microgram of DNA from HBV-infected HLCZ01 cells is used as template for processing quantitative PCR and HBV DNA level in the human hepatoma cell line HLCZ01 is detected.
According to the human hepatoma cell line HLCZ01 of the present invention, the human hepatoma cell line HLCZ01 can also be used for the preparation, screening or evaluating the anti-HBV drugs. […] Therefore, the human hepatoma cell line HLCZ01 of the present invention can be used for the preparation, screening or evaluating the anti-HBV drugs.

Assay [3] concerns HLCZ01 cells. Briefly: TRAIL sensitivity of HLCZ01 cells by flow cytometry. It is filed as cell-based, human. To be noted: HLCZ01 cells treated with TRAIL, FIG. 11. Background: In flow cytometry, cells or beads pass a laser one at a time.

With α-interferon, in assay [1], the “amount of virus in HCV-infected HLCZ01 cells” value is recorded as “able to reduce the amount of virus in HCV-infected HLCZ01 cells”. The “amount of HBV in the human hepatoma cell line HLCZ01” value in assay [2] was “able to reduce the amount of HBV in the human hepatoma cell line HLCZ01”.

B1: TRAIL (protein, UniProt P50591 1-281, looked up)
Tumor necrosis factor ligand …: MAMMEVQGGPSLGQTCVLIVIFTVLLQSLCVAVTYVYFTNELKQMQDKYSKSGIACFLKEDDSYWDPNDEESMNSPCWQVKWQLRQLVRKMILRTSEETISTVQEKQQNISPLVRERGPQRVAAHITGTRGRSNTLSSPNSKNEKALGRKINSWESSRSGHSFLSNLHLRNGELVIHEKGFYYIYSQTYFRFQEEIKENTKNDKQMVQYIYKYTSYPDPILLMKSARNSCWSKDAEYGLYSIYQGGIFELKENDRIFVSVTNEHLIDMDHEASFFGAFLVG
notes: TRAIL at the current phase II of clinical trail
Consider B1, for which the “death of the HLCZ01 cells” value in assay [3] was “able to induce the death of the HLCZ01 cells”.
